Measurements taken from the METLIN SMRT retention time set (Domingo-Almenara et al. 2019).

assay: gradient 5% acetonitrile 3 min, to 50% in 2 min, to 85% in 15 min, held 3 min, 100 µL/min; conditions: column: Zorbax Extend-C18 2.1 x 50 mm; eluents: water / acetonitrile, 0.1% formic acid
How it was run: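 A Zorbax Extend-C18 column (2.1 × 50 mm, 1.8 μm) run at 100 μL/min with water and acetonitrile, both containing 0.1% formic acid, separated mixtures of ~100 pure standards. The HPLC was coupled to a quadrupole time-of-flight mass spectrometer operated in positive and negative ionization mode, with dead and dwell volumes of 40 μL and 900 μL. Each retention time was taken from a computationally picked adduct peak that was then manually inspected.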

Compound | RP-LC retention time
COCCCNC(=O)N1CCCN(C2=NS(=O)(=O)C(c3ccc(F)cc3)=C2C)CC1 | 709 s
Cc1cc2ccccc2n1CCNC(=O)C(=O)c1cn(CC(=O)N2CCCC2)c2ccccc12 | 1010 s
CCCCC(=O)N1CCCN(C2=NS(=O)(=O)C(c3ccc(C)cc3)=C2C)CC1 | 855 s
CC(C)CCNC(=O)CN1C(=O)C2CCCCN2c2ccc(C(=O)N(C)C)cc21 (configuration not stated) | 745 s
COc1cc(NC(=O)N2CCCC(CN3CCc4ccccc4C3)C2)cc(OC)c1OC (configuration not stated) | 642 s
CCOC(=O)CNC(=O)NCc1cccn1Cc1cccc(C)c1 | 834 s
O=C(NCC1(CO)CC1)c1cccc(C(F)(F)F)c1 | 691 s
CN1C(=O)COc2ccc(-c3csc(NC(=O)C4CCCCC4)n3)cc21 | 988 s
COc1ccc(OC)c(NC(=O)Cn2c(C)cc(-c3nnc(C4CC4)o3)c2C)c1 | 830 s
O=C(Cn1cc(Cl)cn1)N1CCCC1c1cccc(F)c1 (configuration not stated) | 836 s
Cc1oc(-c2[nH]ncc2C(=O)N(C)C)cc1S(=O)(=O)NC1CC1 | 614 s
COCCc1noc(C2Cc3ccccc3N2C(=O)NCC(=O)OC)n1 (configuration not stated) | 720 s
O=C(c1nnc(-c2ccc(S(=O)(=O)N3CCCCC3)cc2)o1)N1CCC(N2CCCCC2)CC1 | 654 s
CCCNC(=O)CC1Sc2ncccc2N(CC)C1=O (configuration not stated) | 642 s
Cc1cccc(C)c1NC(=O)Cn1nc2n(c1=O)CCCCC2 | 684 s
O=C(NCC1CC1)c1c(O)c2sccc2n(Cc2ccccc2)c1=O | 766 s
Cc1cccc(NC(=O)C2CCN(S(=O)(=O)c3cc(C(=O)N4CCCC4)n(C)c3)CC2)n1 | 653 s
Cc1nc(NC(=O)C2CC(=O)N(c3n[nH]c4cccc(F)c34)C2)sc1C (configuration not stated) | 688 s
Cc1cc(=O)n(CC(=O)Nc2ccc(Br)cc2)c(N2CCOCC2)n1 | 712 s
Cc1cn(C2CC(O)C(CO)O2)c(=O)n(Cc2ccccc2)c1=O (configuration not stated) | 697 s
O=C(Nc1cccc(Nc2ncc(Br)c(NCCc3cnc[nH]3)n2)c1)N1CCCC1 | 592 s
CCc1ccc(CNC(=O)Cc2c(C(=O)O)c(C)cn2CC)cc1 | 842 s
CC(C)(C)C(O)CCNC(=O)NCc1ccc(F)cc1 (configuration not stated) | 705 s
Cc1ccc(C(CNC(=O)c2cc(-c3ccc4c(c3)CCCC4)on2)N2CCN(C)CC2)o1 (configuration not stated) | 838 s
NC(=O)Cc1csc(NC(=O)COc2ccc3c(c2)C(=O)CC3)n1 | 600 s
O=C(Cn1cccn1)N1CCN(c2ncccn2)CC1 | 567 s
O=C1NCCCn2cc(S(=O)(=O)NCc3ccc4c(c3)OCO4)cc21 | 640 s
O=C(NC1CCCCC1)C1CCCN(S(=O)(=O)c2cc(-c3noc(C4CCCC4)n3)cs2)C1 (configuration not stated) | 1220 s
CC(=O)N1CCc2cc(N3CC(C(=O)Nc4ccc(F)c(F)c4)CC3=O)ccc21 (configuration not stated) | 726 s
COc1ccc(CNC(=O)CCC2CCN(c3cc(NC4CC4)ncn3)CC2)cc1 | 645 s

Next, values leading:

RP-LC retention time | Compound
723 s | CN(C)c1cccc(C(=O)NCC2CCN(C(=O)Oc3ccccc3)CC2)c1
577 s | CC(C)Cn1c(=O)c(N2CCN(C(=O)Nc3ccccc3)CC2)nc2ccncc21
850 s | COc1ccc2[nH]cc(CCNC(=O)CCC(=O)N3Cc4cccn4-c4ccccc43)c2c1
670 s | O=S(=O)(CCOc1ccc(F)cc1)Nc1ncccn1
596 s | O=C(Cc1cccs1)NC1CCN(c2nnc3ccc(Cl)cn23)CC1
1210 s | CCc1ccc(-n2ncc3c(=O)n(Cc4nc(-c5cccc(C)c5)no4)cnc32)cc1
725 s | O=C(NCc1[nH]nc2ccccc12)c1ccc(Br)o1
684 s | Cc1ccc(CNC(=O)c2ccc3ncnc(N4CCCC4)c3c2)cc1C
808 s | CC1=C(c2ccccc2)S(=O)(=O)N=C1N1CCCN(C(=O)c2ccccc2C)CC1
1010 s | O=C(NCc1cccc2ccccc12)C(=O)c1c[nH]c2ccccc12
781 s | O=C(NC(c1ccccc1)c1nnc(N2CCOCC2)o1)c1ccc(Cl)cc1 (configuration not stated)
599 s | COc1ccc(OCC(=O)N2CCN(c3cc(C)n4c(C)nnc4n3)CC2)cc1
591 s | COc1ccc(-c2oc3ccc(OC)cc3c2C(=O)NCCN2CCOCC2)cc1
644 s | COc1ccc(C(CNC(=O)c2cc(=O)c3cc(C)c(C)cc3o2)N(C)C)cc1 (configuration not stated)
916 s | COc1ccc(-c2nnc(Cc3nc(-c4ccc5c(c4)OCO5)no3)o2)cc1
1070 s | Cn1c(=O)n(C)c2cc(CNc3ccc(Cl)cc3Cl)ccc21
902 s | CCOc1ccccc1NC(=O)N1CCC2(CC1)N=C(c1cccc(F)c1)C(=O)N2
902 s | O=c1c2c(CO)c(-c3ccccc3)nn2ccn1Cc1ccccc1F
960 s | CC(C)c1ccc(C(=O)Nc2cc(-c3ccccn3)no2)cc1

RP-LC retention time | Compound
1070 s | COc1cccc(C2Cn3nnc(-c4nc(-c5ccsc5)no4)c3CO2)c1 (configuration not stated)
943 s | CCOc1ccccc1-c1csc(NC(=O)Cc2csc(C)n2)n1
595 s | CN(C)C(=O)c1cc2c(s1)CCC(C(=O)NCc1nc3ccccc3n1C)C2 (configuration not stated)
874 s | O=C(Cn1c(=O)c2cccn2c2ccccc21)NCCCc1ccccc1
616 s | CC(NC(=O)C1CCN(CCc2cn(C)c3ncccc23)CC1)c1ccc(F)cc1 (configuration not stated)
913 s | COC(=O)c1cccc(NS(=O)(=O)c2cn(CC(C)C)c3ncccc23)c1
815 s | Cc1ccc(CNC(=O)N2CCN(c3ncccc3-c3nnc(C(C)C)o3)CC2)cc1
753 s | O=C(NC1CCN(Cc2ccccc2)CC1)C1CCCN(c2ncc(-c3cccc(F)c3)cn2)C1 (configuration not stated)
643 s | COCCCNC(=O)N1CCN(c2nnc(C)c3c(C)n(-c4ccc(C)cc4)nc23)CC1
1010 s | CCCCN(C)C(=O)C(C)n1nc(C)c2nn(-c3ccccc3)c(-n3cccc3)c2c1=O (configuration not stated)
1090 s | O=C(Cn1nc(N2CCCCCC2)c2ccccc2c1=O)Nc1ccc(F)cc1
832 s | Clc1ccc(OCc2nn3c(-c4ccccn4)nnc3s2)cc1
1060 s | Cc1ccc(-c2nc(N3CC4(C)CC3CC(C)(C)C4)c3ccccc3n2)cc1 (configuration not stated)
865 s | Cc1cccc(-c2noc(Cn3ccn(-c4ccccc4C)c(=O)c3=O)n2)c1
1090 s | CCc1cccc(NC(=O)CSc2cc(N3CCN(c4ccccc4OC)CC3)ncn2)c1
948 s | Cc1ccc(-c2cc3n(n2)CCCN(C(=O)c2ccc(C)s2)C3)cc1
654 s | COc1cccc(CNC(=O)N2CCN(Cc3nc4ccccc4o3)CC2)c1
1220 s | Cc1cccc(N2CCN(c3ccc4nnc(CCc5nc(-c6ccccc6C)no5)n4n3)CC2)c1
